Literature values in patent US20110118134A1, “Biomarkers for insulin sensitizer drug response” (IKFE GmbH, priority 2008, published 2011).

System: MIF
Conditions: six week treatment, eight non-diabetic patients with obesity

CN(C)C(=N)N=C(N)N [metformin]
Plasma concentration of MIF and transcription of MIF mRNA in mononuclear cells: could be reduced
